From patent US20200270225A1, “Chiral Diacylhydrazine Ligands for Modulating the Expression of Exogenous Genes via an Ecdysone Receptor Complex” (Intrexon Corporation, priority 2007, published 2020)

Columns and labels:
[1] = test system: murine IL-12 under the control of the RTS; assay: In vivo induction of transgene IL-12 from Ad-RTS-mIL-12 transduced B16 tumor cells; set-up: species or system C57BL/6 mice; settings: for IL-12 expression levels after ligand treatment discontinued: ligand discontinued for 3 days; for transgene IL-12 expression in tumor and serum, dose pattern: oral gavage 0, 3, 10, 30, 50 mg/kg daily for 3 days
Procedure: The transgene tested in this example was murine IL-12 under the control of the RTS. Mouse melanoma cells (B16) were transduced with an adenoviral vector Ad-RTS-mIL-12 that carries the murine IL-12 transgene under the control of RTS. These cells were injected subcutaneously (s.c.) into the C57BL/6 mice (histocompatible with B16 cells) and the mice were treated with different doses of the R enantiomer and racemic 2-ethyl-3-methoxy-benzoic acid N′-(1-tert-butyl-butyl)-N′-(3,5-dimethyl-benzoyl)-hydrazide for three days. The control groups included the mice receiving untransduced B16 cells and the higher dose of ligand and another group receiving the transduced B116 cells and no ligand. […] Tumor extracts and serum were prepared and assayed for IL-12 by ELISA.
The remaining mice were used for testing the transgene turn-off when the ligand administration is discontinued for an additional 72 hours.
Materials and Methods: B16 cells were infected with Ad-RTS-mIL-12 (MOI=100) in vitro. After 48 h, 5×10^5 (B16, right flank) cells were injected s.c. into C57 BL/6 mice (10 mice/group). The R enantiomer and racemate ligands were dissolved in Labrasol by heating a 10 mg/mL mixture at 50° C. for 5 minutes. Both ligands were dissolved in Labrasol based on visual inspection. Activating ligands were provided via oral gavage at the following doses (0 mg/kg; 3 mg/kg; 10 mg/kg; 30 mg/kg and 50 mg/kg) daily for 3 days. Additional controls included B16-bearing mice receiving ligand only (50 mg/kg/day for 3 days and untreated tumor-bearing mice). Five mice/group were harvested for isolation of tumor lesions and peripheral blood. Tissue was homogenized in 1 ml total of phosphate-buffered saline. Lysate/serum was cryopreserved at −80° C. The alternate 5 mice/group were allowed to sit for an additional 72 h in the absence of further ligand administration. These latter 5 mice/group were harvested for isolation of tumor lesions and peripheral blood. Tissue was homogenized as above, and cryopreserved and lysate/serum was cryopreserved at −80° C. Specimens were thawed at 37° C. in water bath and analyzed for mIL-12p70 and also mIFN-γ, a corollary IL-12-dependent cytokine important for CTL trafficking into tumors, using specific ELISAs (BD-Pharmingen).

[2] = Solubility in pharmaceutical excipients, Assay 1 (qualitative); format: physicochemical
Procedure: The solubility of micronized R enantiomer and racemate of 2-Ethyl-3-methoxy-benzoic acid N′-(1-tert-butyl-butyl)-N′-(3,5-dimethyl-benzoyl)-hydrazide was assessed qualitatively in commercially-available excipients (FIG. 9). Initial solutions/suspensions of 10 mg/g (test article/excipient) in glass vials were prepared by sonication at room temperature for 15 minutes with swirling for 30 seconds at 5 minute intervals, followed by heating in an aluminum block at 50° C. for 12 minutes with swirling for 30 seconds at 3 minute intervals. Based on the appearance of this initial 10 mg/g excipient sample, a 2-4 point concentration continuum was scanned by up or down sampling at several of the following points: 5, 10, 15, 20, 30, 50 mg/g (test article/excipient). […] Photos of several of the preparations in clear glass vials were taken (not shown).

Caco-2 cell monolayers = assay: Bidirectional permeability through Caco-2 cell monolayers; format: in vitro ADME
Procedure: The test compounds were prepared as 5 μM in HBSSg with a maximum DMSO concentration <1%. Confluent monolayers of Caco-2 cells, 21 to 28 days old were prepared. The receiver well was prepared with 1% BSA in modified Hanks buffer HBSSg, and the apical and basolateral sides of Caco-2 cell were maintained at pH 7.4±0.2. Two monolayers were dosed in each direction (N=2): the apical side was dosed for (A→B) assessment and the basolateral side was dosed for (B→A) assessment. The test compound concentration was measured for both apical and basolateral sides at a time point of 120 minutes using a generic LC/MS/MS method with a minimum 4 point calibration curve. The values in FIG. 13 are: the percent recovery of the test compound from Transwell® wells containing Caco-2 cell monolayers; apparent permeability (Papp) in both directions; efflux ratio (Papp B→A)/(Papp A→B); absorption potential of a test compound classified as either Low or High; efflux classification is significant when efflux ≥3.0 and Papp (B→A)≥1.0×10-6 cm/s. […] Also, the efflux rate for the R enantiomer is lower.

Microsomal metabolism = format: in vitro ADME, human; settings: 5 μM, 1.0 mg/mL microsomal protein, 1 mM NADPH, 60 minutes
Procedure: The test compounds were prepared as 5 μM solutions in DMSO (concentration less than 0.25%), methanol, or acctonitrile. Mixed gender human liver microsomes were pooled from a ≥10 donors, and incubated with 1 mM NADPH. The test compound was incubated at 37° C. in buffer containing 1.0 mg/mL of microsomal protein with 1 mM NADPH. At 0 and 60 minutes, the mixture was sampled and monitored by LC/MS/MS for the peak area corresponding to the test compound, with the range of 10-100%. The assay was run in duplicate (N=2 separate incubations). The data reported in FIG. 15 is percent remaining of testosterone standard and percent remaining of the test compound.

B16 melanoma = assay: Anti-tumor efficacy with intratumoral transduced DCs in B16 melanoma mouse model; format: in vivo, C57/BL6 mice
Procedure: A comparative analysis of various administration routes and doses of (R)-2-ethyl-3-methoxy-benzoic acid N′-(1-tert-butyl-butyl)-N′-(3,5-dimethylbenzoyl)-hydrazide on the anti-tumor efficacy of intra-tumorally delivered DCs transduced with an adenoviral vector encoding murine interleukin-12p70 (DC-SP1(IL-12p70)) were carried out in a B16 melanoma mouse model. […] Optimal anti-tumor effects occurred at ≥30 mg/kg (R)-2-ethyl-3-methoxy-benzoic acid N′-(1-tert-butyl-butyl)-N′-(3,5-dimethyl-benzoyl)-hydrazide dose administered with (DC-SP1(IL-12p70)) therapy.
This drug dependent effect was associated with: transgene expression in the tumor and DLN; prolonged Ad-DCs survival in the tumor microenvironment; migration and persistence of AdDCs in the DLN; and induction of anti B16 CD8+ T cells.
When tumor-free animals were re-challenged, on day 50 (post-initial tumor inoculation), these animals were refractory to B16 melanoma, but not MC38 colon carcinoma, progression.

Structure (SMILES)	IL-12 expression levels after ligand treatment discontinued [1]	transgene IL-12 expression in tumor and serum, dose pattern [1]	solubility in pharmaceutical excipients (qualitative) ([2]; all tested excipients except neat polysorbate 80, 5-50 mg/g)	solubility in neat polysorbate 80 (qualitative) ([2]; neat polysorbate 80)	efflux rate, compared (Caco-2 cell monolayers; Caco-2)	apparent permeability (Papp), compared (Caco-2 cell monolayers; Caco-2, A→B and B→A, 5 μM, 120 minutes)	stability to metabolism in human liver microsomes, compared (Microsomal metabolism)	IFN-γ levels in tumor and serum ([1]; mouse, in vivo)	protective immunity on tumor re-challenge (B16 melanoma; 10^7 AdDCs plus 13 day ligand treatment, re-challenge day 50)	tumor regression and animal survival (B16 melanoma; intratumoral AdDCs carrying murine IL-12, systemic ligand within 48 hours following AdDCs injection)	dose for optimal anti-tumor effects (B16 melanoma; with DC-SP1(IL-12p70) therapy) [mg/kg]	anti-tumor efficacy (B16 melanoma; with DC-SP1(IL-12p70) therapy, i.p. injection, oral gavage or diet admix)
CCCC(N(NC(=O)c1cccc(OC)c1CC)C(=O)c1cc(C)cc(C)c1)C(C)(C)C (racemic) [rac-1, rac-2-ethyl-3-methoxy-benzoic acid N′-(1-tert-butyl-butyl)-N′-(3,5-dimethyl-benzoyl)-hydrazide]	dropped to similar proportions in all the treatment groups	dose-dependent pattern										
CCC[C@@H](N(NC(=O)c1cccc(OC)c1CC)C(=O)c1cc(C)cc(C)c1)C(C)(C)C [Example 1, (R)-3,5-Dimethyl-benzoic Acid N-(1-tert-butyl-butyl)-N′-(2-ethyl-3-methoxy-benzoyl)-hydrazide]	dropped to similar proportions in all the treatment groups	dose-dependent pattern	more soluble than racemate	comparably soluble	lower	more permeable than the racemate in both directions	slightly more stable	clearly showed enhanced expression	protective immunity that was tumor-specific	complete regression of tumor and prolonged animal survival	≥ 30	anti-tumor efficacy was demonstrated
